{"source": "patent US4296101A", "about": "“Antibiotic kristenin” (E. R. Squibb & Sons, Inc., priority 1978, dated 1981)", "origin": "cited, not measured here", "tested_on": "gram positive bacteria", "conditions": "stated by Okazaki et al., Journal of Antibiotics, Vol. 28, No. 9, pages 717-719", "data": [{"smiles": "CCC(N)C(O)C(O)C(C)C(=O)NC(CC(C)C)C1Cc2cccc(O)c2C(=O)O1", "note": "(stereo not shown) [baciphelacin]", "values": [{"measurement": "active against gram positive bacteria", "result": "active against gram positive bacteria"}]}]}
